In series [1] the test system is HIV-1 (IIIB). Put plainly: microbe, parasite or virus in culture. The format is cell-based. The conditions noted are these: Human immunodeficiency virus 1, IIIB, MT4, 120 h, read-out: MT4 EC50.
Series [2] concerns pLAI reporter virus. The series can be described thus: microbe, parasite or virus in culture. The format is cell-based, HIV. As to conditions: Human immunodeficiency virus 1, MT4, 72 h.
Series [3] is described as follows: in vitro. The conditions noted are these: human, uninfected MT-4 cells.
Where [4] appears, read: HIV-1 (IIIB) in MT-4 cells, 5 days incubation, Cell Titer Glo.

pEC50: −log10 of the molar value. Read-outs that look alike come from different tables or passages of the source.

Drawing on patent US20250115620A1, “BRIDGED TRICYCLIC CARBAMOYLPYRIDONE COMPOUNDS AND USES THEREOF” (Gilead Sciences, Inc., priority 2022, published 2025), this text covers EC50 and CC50 for 16 compounds.

For orientation: pEC50 means −log10 of the EC50, conventionally taken in molar units. For orientation: CC50 means the concentration giving 50% cytotoxicity. High values mean lower toxicity to the cells, low ones greater toxicity to the cells.

Regarding `COc1ccc(CN2C(C)=NO[C@@]23CC[C@H](C)N2C[C@H]3n3cc(C(=O)NCc4ccc(F)cc4F)c(=O)c(O)c3C2=O)cc1` [Example 147, (3′S,5R,7′R)—N-(2,4-difluorobenzyl)-12′-hydroxy-4-(4-methoxybenzyl)-3,3′-dimethyl-1′,11′-dioxo-1′,4′,5′,11′-tetrahydro-3′H,4H,7′H-spiro[[1,2,4]oxadiazole-5,6′-[2,7]methanopyrido[1,2-a][1,4]diazonine]-10′-carboxamide], the pEC50 in series [1] (setting [4]) was 8.39; in series [2] (read-out: RLUC 50% HS EC50), 7.91; in series [2] (read-out: RLUC CCM EC50), 8.89. This compound also yielded a CC50 at 5 days in series [3] of 7530 nM.
The matching figures for `CC1=NO[C@@]2(CC[C@H](C)N3C[C@H]2n2cc(C(=O)NCc4ccc(F)c(Cl)c4F)c(=O)c(O)c2C3=O)[C@H]1C` [Example 34, (3′S,4S,5S,7′R)—N-(3-chloro-2,4-difluorobenzyl)-12′-hydroxy-3,3′,4-trimethyl-1′,11′-dioxo-1′,4′,5′,11′-tetrahydro-3′H,4H,7′H-spiro[isoxazole-5,6′-[2,7]methanopyrido[1,2-a][1,4]diazonine]-10′-carboxamide]: 9.22, 7.12, 9.70 and 13600 nM.
`CC1=NO[C@@]2(CC[C@H](C)N3C[C@H]2n2cc(C(=O)NCc4ccc(F)cc4F)c(=O)c(O)c2C3=O)O1` [Example 91, (3′S,5R,7′R)—N-(2,4-difluorobenzyl)-12′-hydroxy-3,3′-dimethyl-1′,11′-dioxo-1′,4′,5′,11′-tetrahydro-3′H,7′H-spiro[[1,4,2]dioxazole-5,6′-[2,7]methanopyrido[1,2-a][1,4]diazonine]-10′-carboxamide]: the pEC50 in series [1] (setting [4]) is 8.85; in series [2] (read-out: RLUC 50% HS EC50) it was 6.80; in series [2] (read-out: RLUC CCM EC50) it was 9.70. Besides, in series [3], the CC50 at 5 days was found to be 20000 nM.
For `COCCOC1=NO[C@@]2(CC[C@H](C)N3C[C@H]2n2cc(C(=O)NCc4c(F)cc(F)cc4F)c(=O)c(O)c2C3=O)C1` [Example 38, (3′S,5S,7′R)-12′-hydroxy-3-(2-methoxyethoxy)-3′-methyl-1′,11′-dioxo-N-(2,4,6-trifluorobenzyl)-1′,4′,5′,11′-tetrahydro-3′H,4H,7′H-spiro[isoxazole-5,6′-[2,7]methanopyrido[1,2-a][1,4]diazonine]-10′-carboxamide], the results for the pEC50 in series [1] (setting [4]), in series [2] (read-out: RLUC 50% HS EC50) and in series [2] (read-out: RLUC CCM EC50) were 8.92, 8.82 and 9.52, respectively. The same compound displayed a half-maximal cytotoxic concentration (CC50) at 5 days in series [3] of 22100 nM.
For the compound `C[C@H]1CC[C@]2(CC(=O)N(Cc3nc4ccccc4s3)O2)[C@H]2CN1C(=O)c1c(O)c(=O)c(C(=O)NCc3c(F)cc(F)cc3F)cn12` [Example 161, (3′S,5S,7′R)-2-(benzo[d]thiazol-2-ylmethyl)-12′-hydroxy-3′-methyl-1′,3,11′-trioxo-N-(2,4,6-trifluorobenzyl)-1′,4′,5′,11′-tetrahydro-3′H,7′H-spiro[isoxazolidine-5,6′-[2,7]methanopyrido[1,2-a][1,4]diazonine]-10′-carboxamide], the figures for the negative logarithm of the EC50 (pEC50) in series [1] (setting [4]), in series [2] (read-out: RLUC 50% HS EC50) and in series [2] (read-out: RLUC CCM EC50) were 8.85, 9.05 and 9.40, respectively. For the same compound, in series [3], the CC50 at 5 days is at least 50000 nM.
The matching figures for `C[C@H]1CC[C@]2(CC(=O)N(Cc3cccc4[nH]cnc34)O2)[C@H]2CN1C(=O)c1c(O)c(=O)c(C(=O)NCc3c(F)cc(F)cc3F)cn12` [Example 114, (3′S,5S,7′R)-2-((1H-benzo[d]imidazol-4-yl)methyl)-12′-hydroxy-3′-methyl-1′,3,11′-trioxo-N-(2,4,6-trifluorobenzyl)-1′,4′,5′,11′-tetrahydro-3′H,7′H-spiro[isoxazolidine-5,6′-[2,7]methanopyrido[1,2-a][1,4]diazonine]-10′-carboxamide]: 8.21, 8.23, 8.72 and at least 50000 nM.
As to `C[C@H]1CC[C@]2(CCCN2)[C@H]2CN1C(=O)c1c(O)c(=O)c(C(=O)NCc3c(F)cc(F)cc3F)cn12` [Example 122, (2R,3′S,7′R)-12′-hydroxy-3′-methyl-1′,11′-dioxo-N-(2,4,6-trifluorobenzyl)-1′,4′,5′,11′-tetrahydro-3′H,7′H-spiro[pyrrolidine-2,6′-[2,7]methanopyrido[1,2-a][1,4]diazonine]-10′-carboxamide], the pEC50 in series [1] is 8.19; in series [2] (read-out: RLUC 50% HS EC50) it was 8.12; in series [2] (read-out: RLUC CCM EC50) it was 9.05. In addition, the midpoint of cytotoxicity in series [3], the CC50 at 5 days, lay at 38000 nM.
As for `CCC1=NO[C@@]2(CC[C@H](C)N3C[C@H]2n2cc(C(=O)NCc4c(F)cc(F)cc4F)c(=O)c(O)c2C3=O)O1` [Example 93, (3′S,5R,7′R)-3-ethyl-12′-hydroxy-3′-methyl-1′,11′-dioxo-N-(2,4,6-trifluorobenzyl)-1′,4′,5′,11′-tetrahydro-3′H,7′H-spiro[[1,4,2]dioxazole-5,6′-[2,7]methanopyrido[1,2-a][1,4]diazonine]-10′-carboxamide], the pEC50 in series [1] (setting [4]) was 9.15; in series [2] (read-out: RLUC 50% HS EC50) it was 6.21; in series [2] (read-out: RLUC CCM EC50), 9.70. The CC50 at 5 days in series [3] is 13600 nM.
With `C[C@H]1CC[C@]2(CC(c3cccnc3)=NO2)[C@H]2CN1C(=O)c1c(O)c(=O)c(C(=O)NCc3ccc(F)cc3F)cn12` [Example 14, (3′S,5S,7′R)—N-(2,4-difluorobenzyl)-12′-hydroxy-3′-methyl-1′,11′-dioxo-3-(pyridin-3-yl)-1′,4′,5′,11′-tetrahydro-3′H,4H,7′H-spiro[isoxazole-5,6′-[2,7]methanopyrido[1,2-a][1,4]diazonine]-10′-carboxamide], the values for the pEC50 in series [1] (setting [4]), in series [2] (read-out: RLUC 50% HS EC50) and in series [2] (read-out: RLUC CCM EC50) were 8.80, 8.39 and 9.10, respectively. This compound also displayed a CC50 at 5 days in series [3] of 16700 nM.
The matching figures for `C[C@H]1CC[C@]2(CCC(=O)N2)[C@H]2CN1C(=O)c1c(O)c(=O)c(C(=O)NCc3c(F)cc(F)cc3F)cn12` [Example 121, (2S,3′S,7′R)-12′-hydroxy-3′-methyl-1′,5,11′-trioxo-N-(2,4,6-trifluorobenzyl)-1′,4′,5′,11′-tetrahydro-3′H,7′H-spiro[pyrrolidine-2,6′-[2,7]methanopyrido[1,2-a][1,4]diazonine]-10′-carboxamide]: 7.06, 7.70, 7.77 and at least 50000 nM.
On to `C[C@H]1CCC2(OCCCO2)[C@H]2CN1C(=O)c1c(O)c(=O)c(C(=O)NCc3c(F)cc(F)cc3F)cn12` [Example 128, (3′S,7′R)-12′-hydroxy-3′-methyl-1′,11′-dioxo-N-(2,4,6-trifluorobenzyl)-1′,4′,5′,11′-tetrahydro-3′H,7′H-spiro[[1,3]dioxane-2,6′-[2,7]methanopyrido[1,2-a][1,4]diazonine]-10′-carboxamide], for which the pEC50 is 8.96 in series [1] (setting [4]), 7.74 in series [2] (read-out: RLUC 50% HS EC50) and 9.70 in series [2] (read-out: RLUC CCM EC50). In series [3], this compound showed a CC50 at 5 days of 20500 nM.
The matching figures for `COCCOC1=NO[C@@]2(CC[C@H](C)N3C[C@H]2n2cc(C(=O)NCc4ccc(F)cc4F)c(=O)c(O)c2C3=O)C1` [Example 41, (3′S,5S,7′R)—N-(2,4-difluorobenzyl)-12′-hydroxy-3-(2-methoxyethoxy)-3′-methyl-1′,11′-dioxo-1′,4′,5′,11′-tetrahydro-3′H,4H,7′H-spiro[isoxazole-5,6′-[2,7]methanopyrido[1,2-a][1,4]diazonine]-10′-carboxamide]: 9.22, 9.30, 9.40 and 21500 nM.
The matching figures for `C[C@@H](F)C1=NO[C@@]2(CC[C@H](C)N3C[C@H]2n2cc(C(=O)NCc4c(F)cc(F)cc4F)c(=O)c(O)c2C3=O)C1` [Example 70, (3′S,5S,7′R)-3-((R)-1-fluoroethyl)-12′-hydroxy-3′-methyl-1′,11′-dioxo-N-(2,4,6-trifluorobenzyl)-1′,4′,5′,11′-tetrahydro-3′H,4H,7′H-spiro[isoxazole-5,6′-[2,7]methanopyrido[1,2-a][1,4]diazonine]-10′-carboxamide]: 8.89, 6.75, 9.40 and 26600 nM.
Take `C[C@H]1CC[C@@]2(COC(Cc3ccccc3)O2)[C@H]2CN1C(=O)c1c(O)c(=O)c(C(=O)NCc3c(F)cc(F)cc3F)cn12` (stereo partly drawn) [Example 136, (3′S,4S,7′R)-2-benzyl-12′-hydroxy-3′-methyl-1′,11′-dioxo-N-(2,4,6-trifluorobenzyl)-1′,4′,5′,11′-tetrahydro-3′H,7′H-spiro[[1,3]dioxolane-4,6′-[2,7]methanopyrido[1,2-a][1,4]diazonine]-10′-carboxamide]: the pEC50 in series [1] was 8.24; in series [2] (read-out: RLUC 50% HS EC50), 8.06; in series [2] (read-out: RLUC CCM EC50), 8.77. Also, the CC50 at 5 days in series [3] was 16600 nM.
In the case of `C[C@H]1CC[C@]2(CO2)[C@H]2CN1C(=O)c1c(O)c(=O)c(C(=O)NCc3c(F)cc(F)cc3F)cn12` [Example 165, (2R,3′S,7′R)-12′-hydroxy-3′-methyl-1′,11′-dioxo-N-(2,4,6-trifluorobenzyl)-1′,4′,5′,11′-tetrahydro-3′H,7′H-spiro[oxirane-2,6′-[2,7]methanopyrido[1,2-a][1,4]diazonine]-10′-carboxamide], the pEC50 is 8.85 in series [1] (setting [4]), 8.27 in series [2] (read-out: RLUC 50% HS EC50) and 9.52 in series [2] (read-out: RLUC CCM EC50). It took 6590 nM to reach half-maximal cytotoxicity in series [3] (CC50 at 5 days).
With `C[C@H]1CC[C@]2(CC(=O)N(Cc3ccccn3)O2)[C@H]2CN1C(=O)c1c(O)c(=O)c(C(=O)NCc3c(F)cc(F)cc3F)cn12` [Example 159, (3′S,5S,7′R)-12′-hydroxy-3′-methyl-1′,3,11′-trioxo-2-(pyridin-2-ylmethyl)-N-(2,4,6-trifluorobenzyl)-1′,4′,5′,11′-tetrahydro-3′H,7′H-spiro[isoxazolidine-5,6′-[2,7]methanopyrido[1,2-a][1,4]diazonine]-10′-carboxamide], the pEC50 in series [1] (setting [4]) was 8.74; in series [2] (read-out: RLUC 50% HS EC50), 8.96; in series [2] (read-out: RLUC CCM EC50) it was 9.10. Besides, the CC50 at 5 days in series [3] was at least 50000 nM.
